Test results: patent US7235588B2, “Method for reducing hypertension and heart failure” (The Research Foundation of State University of New York, priority 2001, dated 2007)

Key:
[1] = test system: hearts subjected to ischemia/reperfusion; details: cited from earlier work
[2] = test system: St-domain/STAT binding activity; test: Electrophoretic gel mobility-shift assay of St-domain/STAT binding in heart nuclear extracts; set-up: species or system rat; details: hearts, 30 min ischemia/120 min reperfusion
Source text: Nuclear extracts were examined in hearts subjected to global ischemia to determine whether there is enhanced STAT binding activity to the St domain of the angiotensinogen promoter. The nuclear heart extracts were examined by the electrophoretic gel mobility-shift assay that exployed the use of the chemically synthesized oligonucleotide sequence of the St domain. The St-domain DNA probe for protein binding was a double-stranded oligonucleotide containing the sequence 5′-GGGTtcCTGGAAGGG-3′ SEQ. ID NO: 2, and complementary strand 5′-CCCTTCCAGgaACCC-3′ SEQ. ID NO: 3, respectively. These probes were end-labeled by polynucleotide kinase and [γ-^32P]ATP. Binding reaction mixture containing 0.5 ng of labeled DNA (1,000 cpm), 2 μg of poly(dI-C), and 1-12 μg of protein in buffer containing 20 mM Hepes, 3% glycerol, 1.5 mM MgCl2, 1 mM DTT, 2 mM EDTA and 50 mM KCl, pH 7.5 was allowed to incubate at 4° C. for 30 min. The reactions were analyzed by electrophoresis on 8% polyacrylanide gel in 0.375× TBE ([…] Tris borate, pH 8.7 and 1.0 mM EDTA). After electrophoresis, the gels were dried and subjected to autoradiography. […] (FIG. 5B). The activation of STATs and the consequent binding to the St-domain in the angiotensinogen promoter accounts for the increase in transcription of angiotensinogen mRNA. […]

angiotensinogen mRNA = test: Angiotensinogen mRNA in hearts subjected to ischemia/reperfusion (primer extension assay); set-up: species or system rat; details: 30 min ischemia and 120 min reperfusion
Method: Ischemia was induced by a modified Langendorf-reperfusion method in rat hearts. Hearts from adult male rats were randomly divided into 4 groups and subjected to ischemia/reperfusion. In the ischemic group, hearts were perfused with Krebs-Henseleit buffer for 60 minutes, followed by 30 minutes of global ischemia. In the ischemic/reperfused group, hearts were perfused for 60 minutes, followed by 30 minutes of global ischemia and 120 minutes of reperfusion. Control group hearts were perfused for the same lengths of time.
Rat hearts subjected to ischemia/reperfusion were tested to determine whether activation of the renin-angiotensin system, as reflected by an increase in angiotensinogen mRNA, occurs in ischemic injury. The level of angiotensinogen mRNA was analyzed by primer extension assay using gene-specific DNA probes. A DNA primer spanning the complementary sequence of the rat angiotensinogen cDNA between nucleotides 302 and 279 (5′-[…]-3′) SEQ ID NO: 1 was end-labeled and used to evaluate the expression of angiotensinogen mRNA in total RNA isolated from the rat heart. The primer extension protocol was performed according to instructions provided by the supplier (Progema). Rat GAPDH cDNA specific primer was used as control. There was a marked increase in mRNA level after 30 minutes of ischemia and 120 minutes of reperfusion (FIG. 5A). […]

| St-domain/STAT binding activity (STAT/DNA complex formation) [2] | Compound | cardioprotection / myocardial damage due to ischemia [1] | angiotensinogen mRNA level (angiotensinogen mRNA) |
| --- | --- | --- | --- |
|  | N#C/C(=C\c1ccc(O)c(O)c1)C(=O)NCCCCc1ccccc1 [Tyrphostin AG556] | reduces myocardial damage due to ischemia |  |
| almost entirely abolished | CCCCc1nc(Cl)c(CO)n1Cc1ccc(-c2ccccc2-c2nn[nH]n2)cc1 [losartan] |  | reduced it almost entirely to the level of the control sample |
